Assay results from patent publication EP0592600B1, “PROTEINS S POLYPEPTIDES AND USES THEREOF” (THE SCRIPPS RESEARCH INSTITUTE, priority 1991, dated 1993).
Ends that are not written are not given here. Peptide text beside a SMILES is read from it.

T1: PS:C4BP complex (Homo sapiens, UniProt P04003+P20851)
T1 construct: Purified human C4BP was obtained from 5 liters (1) of human citrated plasma; from tissue; host or cells: human citrated plasma (C4BP); protein S per Schwarz et al
T1 sequence (P04003 49-597): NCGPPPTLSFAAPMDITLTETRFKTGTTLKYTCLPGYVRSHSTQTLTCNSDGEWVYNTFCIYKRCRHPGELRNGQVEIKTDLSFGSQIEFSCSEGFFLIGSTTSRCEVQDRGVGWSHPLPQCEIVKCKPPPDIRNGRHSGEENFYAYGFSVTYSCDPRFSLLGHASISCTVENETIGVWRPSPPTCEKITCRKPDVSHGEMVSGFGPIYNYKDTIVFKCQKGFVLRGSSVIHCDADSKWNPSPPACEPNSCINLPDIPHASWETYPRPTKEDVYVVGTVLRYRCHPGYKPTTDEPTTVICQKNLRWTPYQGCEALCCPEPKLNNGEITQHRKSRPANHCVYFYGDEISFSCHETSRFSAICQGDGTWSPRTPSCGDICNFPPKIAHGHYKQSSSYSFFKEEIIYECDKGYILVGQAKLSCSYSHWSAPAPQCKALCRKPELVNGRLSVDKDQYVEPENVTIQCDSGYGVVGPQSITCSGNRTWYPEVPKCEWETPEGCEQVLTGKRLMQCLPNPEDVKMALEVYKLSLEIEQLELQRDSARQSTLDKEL
T1 sequence (P20851 18-252): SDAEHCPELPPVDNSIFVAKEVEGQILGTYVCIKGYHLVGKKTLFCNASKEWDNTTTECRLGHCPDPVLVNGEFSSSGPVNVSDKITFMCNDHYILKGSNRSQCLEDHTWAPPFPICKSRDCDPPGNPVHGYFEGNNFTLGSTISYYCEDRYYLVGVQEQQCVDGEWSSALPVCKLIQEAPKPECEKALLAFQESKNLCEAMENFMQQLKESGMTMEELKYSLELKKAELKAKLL

T2: C4b binding protein (human, UniProt P04003 49-597; P20851 18-252)
T2 construct: mature; The beta chain is added from general knowledge; Biotinylated (b-C4BP) in some assays; also called C4BP; purified human C4BP
T2 sequence (looked up) 1: T1 sequence (P04003 49-597)
T2 sequence (looked up) 2: T1 sequence (P20851 18-252)

B1: PSP-428K* (peptide)
peptide: SGIKEIIQKKQNKC-NH2
notes: protein S 420-432,434 with a substitution

Assays:
PS:C4BP complex [1] = biological target: T1, PS:C4BP complex; test: Peptide inhibition of binding of b-C4BP to PS-coated wells; details: b-C4BP 1 µg/ml, PS-coated wells, peptide 0 - 500 µM; for IC90: read-out: IC90; for IC50: read-out: half-maximal inhibitory concentration (IC50)
Method: An alternative approach was used to test the ability of the peptides, PSP-loop and PSP-428K, in comparison with that seen with the PSP-12 peptide, in inhibiting the binding of C4BP to PS. For this assay, the microtiter wells were coated with purified PS diluted to a concentration of 10 µg/ml in carbonate-coating buffer as described above. The wells were maintained to allow the PS to bind to the well walls. After the maintenance period, the wells were blocked also as described above. The selected PSP peptides were separately admixed at various concentrations ranging from 0 - 500 µM with biotinylated-C4BP (b-C4BP) at a concentration of 1 µg/ml. The admixtures were maintained on a fluid phase plate for 2 hours at room temperature to form peptide-C4BP complexes.
Fifty µl of the complexed admixtures were separately admixed to the prepared C4BP-coated wells and maintained for 1 hour at room temperature. Thereafter, the plate was washed and processed for developing as described above.

PS:C4BP complex [2] = biological target: T1, PS:C4BP complex; test: Peptide Inhibition Assay: binding of b-PS to C4BP in solid phase; details: peptide concentration of 800 µM; read-out: percent inhibition of PS:C4BP complex formation
Method: Each of the peptides produced as described in Example 1 and listed in Table 1 was analyzed for its ability to inhibit the binding of native protein S in liquid-phase to C4BP in solid-phase.
Microtiter wells of a 96 well plate were coated with 50 µl of 10 µg/ml purified C4BP in carbonate buffer (0.02 M Na2CO3, pH 9.0, 0.02% Na-Azide). After blocking with 10% BSA in TBS, 50 µl of different concentrations of peptides diluted in washing buffer (TBS, 0.2% BSA, 5mM CaCl, 0.02% Tween 20) were separately admixed to C4BP-coated wells. After 2 hours at room temperature, 50 µl of a solution of biotinylated protein S, were admixed to each well to form a second binding admixture having a final concentration of 2 µg/ml. The plate was agitated and the samples were incubated 1 hour at room temperature. The samples were discarded and the wells were washed 3 times with washing buffer. To each well, 50 µl of strepavidin-alkaline-phosphatase (1 µg/ml washing buffer) were admixed and allowed to incubate for 30 minutes at room temperature. The strepavidin-alkaline-phosphatase was then discarded and the wells were washed 6 times with washing buffer. The resulting optical densities of the reaction solutions were read as described before in Example 2C.
Results of the assay are reported as percent inhibition of C4BP binding. Percent of inhibition of C4BP binding is defined as: I = 100% - 100 x (deltaT /deltaC ) [formula] • where I is expressed as a percent; and • where 100% = delta/min of the amount of b-PS which specifically bound to C4BP-coated wells in the absence of any competing PS-peptide; and • where deltaT = the change in absorbance (405 nm) in the presence of competing PS-peptide; and • where deltaC = the change in absorbance (405 nm) in the absence of competing PS-peptide.

PS:C4BP complex [3] = biological target: T1, PS:C4BP complex; test: Fluid-phase peptide inhibition of PS binding to b-C4BP, detected on MAb S-7-coated plates; details: b-C4BP 0.5 µg/ml, PS 1.0 µg/ml, peptide 0 - 500 µM
Method: An alternative approach was used to test the ability of the peptides, PSP-loop, PSP-424K and PSP-428K, in comparison with that seen with the PSP-12 peptide, in inhibiting the binding of PS to C4BP, the result of which was detected on monoclonal antibody-coated plates. For this assay, biotinylated-C4BP (b-C4BP), PS and PSP peptides were admixed together at the respective concentrations of 0.5 µg/ml, 1.0 µg/ml and at a range of 0 - 500 µM (V:V:V). The admixtures were maintained for 2 hours at room temperature on a fluid phase plate to allow the binding and/or inhibition thereof of PS to C4BP by the PS-derived peptides. After the maintenance period, 50 µl of the admixture were separately admixed to wells previously coated with 10 µg/ml of MAb S-7 (ATCC No. HB 80819). The admixtures were maintained for 1 hour at room temperature to allow for the binding of C4BP to MAb S-7-antibody-coated plates. The binding of biotinylated complexes to the antibody-coated plates was detected as described in Example 5Aii.

C4b binding protein [4] = biological target: T2, C4b binding protein; test: Competition ELISA, peptide 800 µM on coated C4BP, then b-PS
C4b binding protein [5] = biological target: T2, C4b binding protein; test: Competition ELISA, peptide preincubated with b-C4BP, PS-coated wells

Molecule | inhibition at 800 µM (PS:C4BP complex [2]) [%] | % inhibition of PS:C4BP complex formation (C4b binding protein [4]) [%] | also measured
CC[C@H](C)[C@H](NC(=O)CNC(=O)[C@@H](N)CO)C(=O)N[C@@H](CCCCN)C(=O)N[C@@H](CCC(=O)O)C(=O)N[C@H](C(=O)N[C@H](C(=O)N[C@@H](CCC(N)=O)C(=O)N[C@@H](CCC(=O)O)C(=O)N[C@@H](CCCCN)C(=O)N[C@@H](CCC(N)=O)C(=O)N[C@@H](CC(N)=O)C(=O)N[C@@H](CCCCN)C(=O)N[C@@H](Cc1c[nH]cn1)C(=O)N[C@@H](CS)C(N)=O)[C@@H](C)CC)[C@@H](C)CC [PSP-12] (H-SGIKEIIQEKQNKHC-NH2; N-terminus assumed) | 80 |  | IC90 (PS:C4BP complex [1]): ~250 µM; IC50 (PS:C4BP complex [1]): ~50 µM; IC50 (PS:C4BP complex [3]): ~50 µM; IC90 (PS:C4BP complex [3]; read-out: IC90): ~250 µM
CC[C@H](C)[C@H](NC(=O)CNC(=O)[C@H](CO)NC(=O)[C@H](C)NC(=O)CNC(=O)[C@@H](N)CCC(N)=O)C(=O)N[C@@H](CCCCN)C(=O)N[C@@H](CCC(=O)O)C(N)=O [PSP-417A] (H-QGASGIKE-NH2) | ~80 |  | 
CC[C@H](C)[C@H](NC(=O)CNC(=O)[C@H](CO)NC(=O)[C@H](C)NC(=O)CNC(=O)[C@H](CCC(N)=O)NC(=O)[C@H](CCCCN)NC(=O)[C@H](CCSC)NC(=O)[C@H](CC(C)C)NC(=O)[C@@H](N)CC(N)=O)C(=O)N[C@@H](CCCCN)C(=O)N[C@@H](CCC(=O)O)C(N)=O [PSP-417P] (H-NLMKQGASGIKE-NH2) | ~60 |  | 
CC[C@H](C)[C@H](NC(=O)CNC(=O)[C@H](CO)NC(=O)[C@H](C)NC(=O)CNC(=O)[C@H](CCC(N)=O)NC(=O)[C@H](CCCCN)NC(=O)[C@H](CCSC)NC(=O)[C@H](CC(C)C)NC(=O)[C@@H](N)CC(N)=O)C(N)=O [PSP-417] (H-NLMKQGASGI-NH2) | ~60 |  | 
CC[C@H](C)[C@H](NC(=O)CN)C(=O)N[C@@H](CCCCN)C(=O)N[C@@H](CCC(=O)O)C(=O)N[C@H](C(=O)N[C@H](C(=O)N[C@@H](CCC(N)=O)C(N)=O)[C@@H](C)CC)[C@@H](C)CC [PSP-424, GIKEIIQ] (H-GIKEIIQ-NH2) | 40 |  | 
CC[C@H](C)[C@H](NC(=O)[C@H](CCC(=O)O)NC(=O)[C@@H](N)CCCCN)C(=O)N[C@H](C(=O)N[C@@H](CCC(N)=O)C(=O)N[C@@H](CCC(=O)O)C(=O)N[C@@H](CCCCN)C(=O)N[C@@H](CCC(N)=O)C(=O)N[C@@H](CC(N)=O)C(=O)N[C@@H](CCCCN)C(=O)N[C@@H](Cc1c[nH]cn1)C(=O)N[C@@H](CO)C(N)=O)[C@@H](C)CC [PSP-428*, KEIIQEKQNKHS] (H-KEIIQEKQNKHS-NH2) | ~60 |  | 
CC[C@H](C)[C@H](NC(=O)CNC(=O)[C@@H](N)CO)C(=O)N[C@@H](CCCCN)C(=O)N[C@@H](CCC(=O)O)C(=O)N[C@H](C(=O)N[C@H](C(=O)N[C@@H](CCC(N)=O)C(=O)N[C@@H](CCCCN)C(=O)N[C@@H](CCCCN)C(=O)N[C@@H](CCC(N)=O)C(=O)N[C@@H](CC(N)=O)C(=O)N[C@@H](CCCCN)C(=O)N[C@@H](CS)C(N)=O)[C@@H](C)CC)[C@@H](C)CC [PSP-428K, SGIKEIIQKKQNKC] (H-SGIKEIIQKKQNKC-NH2) |  |  | IC90 (PS:C4BP complex [1]): ~250 µM; IC50 (PS:C4BP complex [1]): ~50 µM
NCCCC[C@H](NC(=O)[C@H](CC(N)=O)NC(=O)[C@H](CCC(N)=O)NC(=O)[C@H](CCCCN)NC(=O)[C@H](CCC(=O)O)NC(=O)[C@@H](N)CCC(N)=O)C(=O)N[C@@H](Cc1c[nH]cn1)C(=O)N[C@@H](CO)C(N)=O [PSP-430*] (H-QEKQNKHS-NH2) | ~80 |  | 
QGASGIKE-NH2 [PSP-417A] |  | 80 | 
QEKQNKHS-NH2 [PSP-430*] |  | 80 | 
NLMKQGASGI-NH2 [PSP-417] |  | 60 | 
NLMKQGASGIKE-NH2 [PSP-417P] |  | 60 | 
KEIIQEKQNKHS-NH2 [PSP-428*] |  | 60 | 
GIKEIIQ-NH2 [PSP-424] |  | 40 | 
SGIKEIIQEKQNKHC-NH2 (also: biotinylated form b-PSP-12 also used, also called b-PSP-12 (biotinylated)) [PSP-12] |  |  | IC50 (C4b binding protein [5]): ~50 µM; IC90 (C4b binding protein [5]): ~250 µM
B1 |  |  | IC90 (C4b binding protein [5]): ~250 µM
